Data published in US4556674A, “2-Imino-pyrrolidines, process for their preparation, and therapeutic compositions containing same” (Laboratoires Jacques Logeais, priority 1983, dated 1985).

Tests used:
Acute Toxicity in Mice = type: in vivo; settings: mouse, in vivo, death rate recorded 9 days after treatment
Protocol: (§1) The compounds were administered orally or intraperitoneally, in the form of a solution in physiological saline (0,9 % NaCl), to male mice of Swiss strain (body weight: 22-25 g). The death rate was recorded 9 days after the treatment. […]

[1] = system: collagen-induced blood-platelet aggregation (platelet rich plasma); experiment: Collagen-induced blood-platelet aggregation; type: cell-based, rabbit; settings: for minimal effective concentration: Oryctolagus cuniculus, Platelet, read-out: Collagen-induced blood-platelet aggregation: Threshold concentrations (inhibition of aggregation <50%)
Protocol: Collagen-induced blood-platelet aggregation
Blood samples were taken from the carotid artery in rabbits, using an anticoagulant (sodium citrate at 3.8%, 1 volume per 9 volumes of blood). The platelet rich plasma (PRP) was obtained by slow centrifugation (1200 RPM for 10 mn), and the platelet poor plasma (PPP) by rapid centrifugation (4500 RPM for 15 mn). The PRP samples were placed in the cell of an aggregometer, incubated at 37° C., after which was added thereto Michaelis buffer containing the test compound (0.04 ml), followed by the aggregating agent (collagen: 0.08 ml of collagen suspension previously incubated at 33° C. for 90 seconds). Blood-platelet aggregation is evidenced by the decrease of the optical density of the PRP (Initial O.D. of the PRP: 100%. Initial O.D. of the PPP=0%.)

human plasma clots = experiment: Fibrinolytic activity (lysis of human plasma clots); set-up: Concentration inducing lysis of the clot within 24 hours / Concentration inducing lysis of the clot within 48 hours: unit not given here; settings: for Concentration inducing lysis of the clot within 24 hours / Concentration inducing lysis of the clot within 48 hours: human plasma clot, veronal buffer pH 7.2-7.4, 37° C.
Protocol: The following method was used.
Human plasma clots were prepared by recalcification (one drop of calcium thrombase at 20 U/ml per 0.5 ml of plasma), so that the clot formed around the hook of a glass rod. The clots were then suspended in buffered solutions (veronal buffer pH 7.2-7.4) maintained at 37° C. The eventual lysis of the clot is recorded after 24 hrs and 48 hrs incubation.

[2] = system: male mice of Swiss strain; experiment: Acute Toxicity in Mice; type: in vivo; settings: result in words
Protocol: as §1

[3] = system: aconitine-induced dysrhythmia; experiment: Anti-dysrhythmic activity, aconitine test in rats; type: in vivo, rat
Protocol: The animals are anesthetized with urethane (1 g/kg i.p.); an aconitine sulfate injection (27.5 μg/kg) is made in the pre-catheterized jugular vein, 30 minutes after administration by the same route of one of the test compounds. The time delay before the appearance of the first burst of dysrhythmia is noted on the electrocardiogram (D2 lead recording) and compared with reference animals.

α-adrenolytic activity = α-adrenolytic activity observed in dog after an injection of nor-adrenalin; type: in vivo; settings: result in words
cardiac rhythm = settings: described in DE-A-1770 752; cited from earlier work
[4] = rabbit PRP, 37° C., collagen, threshold concentrations
[5] = Rattus norvegicus, iv, read-out: Aconitine-induced dysrhythmia, percent animals protected

SMILES | mortality at 216 h (Acute Toxicity in Mice; po, 200 mg/kg p.o.) [%] | minimal effective concentration [1, 4] [µg/mL] | Concentration inducing lysis of the clot within 48 hours (human plasma clots) | mortality at 216 h (Acute Toxicity in Mice; ip, 100 mg/kg i.p.) [%] | also measured
CN1CC(COc2ccccc2C#N)CC1=NCCOc1ccccc1 (stereo not drawn) [Example 22, 1-Methyl-4-(2'-cyano-phenoxymethyl)-2-(2-phenoxyethylimino)-pyrrolidine] | 0 | 30 | 5-10 |  | mortality at 216 h (Acute Toxicity in Mice; ip, 33 mg/kg i.p.): 40%; Concentration inducing lysis of the clot within 24 hours (human plasma clots): 20
CN1CC(c2ccccc2)CC1=NCCOc1ccccc1 (stereo not drawn) [Example 3, 1-Methyl-4-phenyl-2-(2-phenoxy-ethylimino)pyrrolidine] | 0 | 1 to 3 |  |  | mortality at 216 h (Acute Toxicity in Mice; ip, 200 mg/kg i.p.): 0%; toxicity [2]: least toxic in mice; anti-blood-platelet-aggregation activity ([1]; result in words): possesses an anti-blood-platelet aggregating activity; Concentration inducing lysis of the clot within 24 hours (human plasma clots): 10-20; fibrinolytic activity (human plasma clots; result in words): a fibrinolytic activity; responders at 10 mg/kg [3, 5]: 83%; anti-arrhythmic activity ([3]; result in words): an anti-arrhythmic activity; α-adrenolytic activity (α-adrenolytic activity): an α-adrenolytic activity
CCc1ccccc1OCC1CC(=NCCc2ccc(OC)c(OC)c2)N(C)C1 (stereo not drawn) [Example 21, 1-Methyl-4-(2'-ethyl-phenoxymethyl)-2-(3',4'-dimethoxy-phenethylimino)pyrrolidine] | 0 | 3 | 10-20 |  | mortality at 216 h (Acute Toxicity in Mice; ip, 33 mg/kg i.p.): 20%; responders at 7.5 mg/kg [3, 5]: 100%
COc1ccc(CCN=C2CC(c3cc4ccccc4o3)CN2C)cc1OC (stereo not drawn) [Example 16] | 0 | 10 to 30 |  | 100 | responders at 3 mg/kg [3, 5]: 80%
CCN1CC(c2ccccc2)CC1=NCCc1ccc(OC)c(OC)c1 (stereo not drawn) [Example 5, 1-Ethyl-4-phenyl-2-(3',4'-dimethoxy-phenethylimino)pyrrolidine] | 0 | 3 to 10 |  | 20 | 
COc1ccc(CCN=C2CC(COc3ccccc3)CN2C)cc1OC (stereo not drawn) [Example 18, 1-Methyl-4-phenoxymethyl-2-(3',4'-dimethoxy-phenethylimino)pyrrolidine] | 0 | 10 to 30 | 20 | 40 | responders at 5 mg/kg [3, 5]: 100%
CN1CC(c2cc3ccccc3o2)CC1=NCCOc1ccccc1 (stereo not drawn) [Example 15, 1-Methyl-4-(2-benzofuryl)-2-(2-phenoxy-ethylimino)-pyrrolidine] | 10 |  |  | 100 | responders at 5 mg/kg [3, 5]: 80%
CN1CC(c2cc3ccccc3o2)CC1=NCCO (stereo not drawn) [Example 11] | 0 | 10 to 100 |  |  | mortality at 216 h (Acute Toxicity in Mice; ip, 200 mg/kg i.p.): 80%
CC(Cc1ccccc1)N=C1CC(c2cc3ccccc3o2)CN1C (stereo not drawn) [Example 14, 1-Methyl-4-(2-benzofuryl)-2-phenylisopropyl-imino-pyrrolidine] | 0 | 3 to 10 |  | 80 | responders at 5 mg/kg [3, 5]: 100%
COCCN=C1CC(c2cc3ccccc3o2)CN1C (stereo not drawn) [Example 12, 1-Methyl-4-(2-benzofuryl)-2-(2-methoxy-ethylimino)-pyrrolidine] | 0 | 3 to 30 |  | 100 | 
C=CCN=C1CC(c2cc3ccccc3o2)CN1C (stereo not drawn) [Example 9, 1-Methyl-4-(2-benzofuryl)-2-allylimino-pyrrolidine] |  | 3 to 10 |  | 60 | mortality at 216 h (Acute Toxicity in Mice; po, 100 mg/kg p.o.): 0%
CN1CC(c2ccccc2)CC1=NCCc1ccccc1 (stereo not drawn) [Example 1, 1-Methyl-4-phenyl-2-phenylethylimino-pyrrolidine] | 0 |  |  | 80 | responders at 1 mg/kg [3, 5]: 25%
CN1CC(c2cc3ccccc3o2)CC1=NCCc1ccccc1 (stereo not drawn) [Example 13, 1-Methyl-4-(2-benzofuryl)-2-phenethylimino-pyrrolidine] | 0 | 3 to 30 | 2.5-5 | 100 | Concentration inducing lysis of the clot within 24 hours (human plasma clots): 10; responders at 5 mg/kg [3, 5]: 50%
COc1ccc(CCN=C2CC(COc3ccc4c(c3)OCO4)CN2C)cc1OC (stereo not drawn) [Example 20, 1-Methyl-4-(3',4'-methylenedioxy-phenoxymethyl)-4-(3',4'-dimethoxy-phenethylimino)pyrrolidine] | 0 | 10 to 30 |  | 80 | responders at 10 mg/kg [3, 5]: 100%
C=CCN1CC(c2ccccc2)CC1=NCCc1ccc(OC)c(OC)c1 (stereo not drawn) [Example 7, 1-Allyl-4-phenyl-2-(3',4'-dimethoxy-phenethyl-imino)pyrrolidine] |  | 10 | 10-20 |  | 
COc1ccc(CCN=C2CCCN2C)cc1OC [Compound A, 1-methyl-2-[(3,4-dimethoxy-phenylethyl)imino]pyrrolidine, reference compound] | 0 |  |  |  | mortality at 216 h (Acute Toxicity in Mice; ip, 200 mg/kg i.p.): 60%; Collagen-induced blood-platelet aggregation: Threshold concentrations (inhibition of aggregation <50%) [1, 4]: inactive; responders at 5 mg/kg [3, 5]: 0%; action on the cardiac rhythm (cardiac rhythm): decreasing action on the cardiac rhythm
CC(Cc1ccccc1)N=C1CC(c2ccccc2)CN1C (stereo not drawn) [Example 2, 1-Methyl-4-phenyl-2-phenylisopropylimino-pyrrolidine] | 83 | 10 |  | 100 | responders at 1 mg/kg [3, 5]: 67%
CN1CC(COc2ccc3c(c2)OCO3)CC1=NCCOc1ccccc1 (stereo not drawn) [Example 19, 1-Methyl-4-(3',4'-methylenedioxy-phenoxymethyl)-2-(2-phenoxy-ethylimino)-pyrrolidine] | 0 | 3 to 10 |  | 80 | responders at 2.5 mg/kg [3, 5]: 25%
CN1CC(COc2ccccc2)CC1=NCCOc1ccccc1 (stereo not drawn) [Example 17, 1-Methyl-4-phenoxymethyl-2-(2-phenoxy-ethylimino)-pyrrolidine] |  | 3 |  |  | responders at 10 mg/kg [3, 5]: 100%
C#CCN=C1CC(c2cc3ccccc3o2)CN1C (stereo not drawn) [Example 10, 1-Methyl-4-(2-benzofuryl)-2-propargylimino-pyrrolidine] |  | 100 |  |  | 
CCCN=C1CC(c2cc3ccccc3o2)CN1C (stereo not drawn) [Example 8, 1-Methyl-4-(2-benzofuryl)-2-n.propyl-imino-pyrrolidine] |  | 10 to 30 | 20 |  | 
COc1ccc(CCN=C2CC(c3ccccc3)CN2C)cc1OC (stereo not drawn) [Example 4, 1-Methyl-4-phenyl-2-(3',4'-dimethoxy-phenethylimino)pyrrolidine] | 0 | 10 to 30 |  |  | mortality at 216 h (Acute Toxicity in Mice; ip, 200 mg/kg i.p.): 100%; responders at 7.5 mg/kg [3, 5]: 90%
CCCN1CC(c2ccccc2)CC1=NCCOc1ccccc1 (stereo not drawn) [Example 6, 1-n.Propyl-4-phenyl-2-(phenoxyethyl-imino)pyrrolidine] |  | 1 to 3 | 5-10 |  | 
